Read-outs that look alike come from different tables or passages of the source.
Legend:
[1] = Aqueous slurry pH (10% slurry, 25 C); type: physicochemical
Method: Various inventive and comparative compounds were formulated with three separate toilet bar bases, 1, 2, and 3 at the 10% by wt. level and their aqueous slurry pH (see method below) was compared to a control shown in table 1. Inventive latent acidifiers are designated “I” and comparative compounds are designated “C”. The bar bases were formulated by blending all ingredients except the latent acidifier for about 30-40 minutes at temperatures of 180-230 F. After that, the latent acidifier is added and mixed for another few minutes until a uniform mixture is obtained. […] The latent acidifier could also be added in the chip mixer after the batch has been cooled and solidified in a spray dryer or a chill roll. This is followed by extrusion and stamping into a bar.
Method for Measuring Aqueous Slurry pH
Nine grams of the base formula and one gram of the latent acidifier (or a comparative compound) were blended together with 90 g of water to create a 10% slurry. The pH of the slurry was then measured at 25 C.

[2] = pH of 1% by wt. aqueous solutions; type: physicochemical
[3] = compound at 10% by wt. in toilet bar Base 1, 10% slurry, 25 C
[4] = compound at 10% by wt. in toilet bar Base 2, 10% slurry, 25 C
[5] = compound at 10% by wt. in toilet bar Base 3, 10% slurry, 25 C
[6] = 1% by wt. aqueous solution of the compound

Row | Compound | Aqueous slurry pH, Base 1 [1] | Aqueous slurry pH, Base 2 [1] | Aqueous slurry pH, Base 3 [1] | pH of 1% Solution ([2]; pH 1) | Aqueous slurry pH, Base 1 [1, 3] | Aqueous slurry pH, Base 2 [1, 4] | Aqueous slurry pH, Base 3 [1, 5] | pH of 1% Solution [2, 6] | Aqueous slurry pH of bars [1] | Latent acidification effect [1]
1 | CC(=O)O.N [Ammonium Acetate] | 6.8 | 8.9 | 9.5 | 6.9 | – | – | – | – | – | –
2 | Cl.N [Ammonium Chloride] | – | – | – | – | 6.5 | 8.7 | 9.1 | 4.9 | – | –
3 | N.N.N.O=P(O)(O)O [Ammonium Phosphate] | 6.1 | 7.6 | 8.7 | 4.2 | – | – | – | – | – | –
4 | N.N.O=S(=O)(O)O [Ammonium Sulfate] | – | – | – | – | 6.7 | 8.9 | 9.4 | 5.0 | – | –
5 | CC(=O)[O-].CC(=O)[O-].[Ca+2] [Calcium Acetate] | 5.2 | 8.1 | 10.1 | 8.2 | – | – | – | – | – | –
6 | O=C([O-])[O-].[Ca+2] [Calcium Carbonate, reference compound] | 7.0 | 9.0 | 10.6 | 9.2 | – | – | – | – | – | –
7 | [Ca+2].[Cl-].[Cl-] [Calcium Chloride] | 4.2 | 6.9 | 9.8 | 9.3 | – | – | – | – | – | –
8 | [Ca+2].[OH-].[OH-] [Calcium Hydroxide, reference compound] | 11.9 | 12.1 | 11.9 | 11.8 | – | – | – | – | – | –
9 | O=[N+]([O-])[O-].O=[N+]([O-])[O-].[Ca+2] [Calcium Nitrate] | 5.2 | 8.6 | 10.1 | 5.3 | – | – | – | – | – | –
10 | O=S(=O)([O-])[O-].[Ca+2] [Calcium Sulfate] | 4.9 | 8.8 | 10.2 | – | – | – | – | – | significant drop in pH | latent acidification effect
11 | O=S(=O)([O-])[O-].O=S(=O)([O-])[O-].O=S(=O)([O-])[O-].[Fe+3].[Fe+3] [Ferric Sulfate] | 1.5 | 7.5 | 9.1 | 1.7 | – | – | – | – | – | –
12 | [Cl-].[Cl-].[Mg+2] [Magnesium Chloride] | 5.9 | 8.4 | 10.0 | 5.2 | – | – | – | – | – | –
13 | O=S(=O)([O-])[O-].[Mg+2] [Magnesium Sulfate] | 6.2 | 8.6 | 10.2 | 6.5 | – | – | – | – | – | –
14 | O=C([O-])O.[Na+] [Sodium Bicarbonate, reference compound] | – | – | – | – | 7.5 | 8.8 | 9.4 | 8.3 | – | –
15 | [Cl-].[Na+] [Sodium Chloride, reference compound] | – | – | – | – | 6.7 | 8.7 | 10.1 | 8.1 | – | –
16 | O=P(O)(O)O [Sodium Phosphate, reference compound] | 7.2 | 8.9 | 10.2 | 9.1 | – | – | – | – | – | –
17 | O=S(=O)([O-])[O-].[Na+].[Na+] [Sodium Sulfate, reference compound] | 6.9 | 8.9 | 10.3 | 9.1 | – | – | – | – | – | –
18 | Calcium Phosphate | 5.4 | 7.2 | 8.6 | 3.7 | – | – | – | – | – | –
